{
  "source": "patent US20260262643A1",
  "about": "“HERBICIDAL BENZOXAZINES” (FMC CORPORATION, priority 2022, published 2026)",
  "key": {"soybean [1]": {"system": "soybean", "test": "Test C preemergence", "assay_type": "in vivo, Glycine max", "procedure,_shortened": "(§1)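 Seeds in loam–sand blend received preemergence directed soil spray of test chemicals in non-phytotoxic solvent with surfactant; postemergence treatment was applied at one- to two-leaf stage (2–10 cm). After 10 days in greenhouse, injury rated visually versus untreated controls, 0 (no effect) to 100 (complete control).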"}, "green foxtail [2]": {"system": "green foxtail", "test": "Test C postemergence", "assay_type": "in vivo, Setaria viridis", "conditions": "10 days, 0 to 100 scale (0 no effect, 100 complete control)", "procedure,_shortened": "as §1"}, "pigweed, palmer [3]": {"system": "pigweed, palmer", "test": "Test C postemergence", "assay_type": "in vivo, Amaranthus palmeri", "conditions": "10 days, 0 to 100 scale (0 no effect, 100 complete control)", "procedure,_shortened": "as §1"}, "ryegrass, Italian [4]": {"system": "ryegrass, Italian", "test": "Test C preemergence", "assay_type": "in vivo, Lolium multiflorum", "procedure,_shortened": "as §1"}, "sedge, umbrella": {"system": "sedge, umbrella", "test": "Test D flooded paddy test", "assay_type": "in vivo, Cyperus difformis", "conditions": "250 g ai/ha, applied to paddy water, visual rating after 13 to 14 days, scale 0 to 100 (0 no effect, 100 complete control)", "procedure,_shortened": "(§2)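 Seedlings reached the 2-leaf stage, then pots were flooded to 3 cm over the soil surface. Compound was applied into the water, depth was maintained, and plants stayed in the greenhouse 13 to 14 days before visual scoring (0–100) relative to controls.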"}, "corn [5]": {"system": "corn", "test": "Test C preemergence", "assay_type": "in vivo, Zea mays", "procedure,_shortened": "as §1"}, "blackgrass [6]": {"system": "blackgrass", "test": "Test C postemergence", "assay_type": "in vivo, Alopecurus myosuroides", "conditions": "10 days, 0 to 100 scale (0 no effect, 100 complete control)", "procedure,_shortened": "as §1"}, "green foxtail [7]": {"system": "green foxtail", "test": "Test C preemergence", "assay_type": "in vivo, Setaria viridis", "procedure,_shortened": "as §1"}, "oat, wild [8]": {"system": "oat, wild", "test": "Test C postemergence", "assay_type": "in vivo, Avena fatua", "conditions": "10 days, 0 to 100 scale (0 no effect, 100 complete control)", "procedure,_shortened": "as §1"}, "blackgrass [9]": {"system": "blackgrass", "test": "Test C preemergence", "assay_type": "in vivo, Alopecurus myosuroides", "procedure,_shortened": "as §1"}, "ragweed [10]": {"system": "ragweed", "test": "Test C preemergence", "assay_type": "in vivo, Ambrosia artemisiifolia", "procedure,_shortened": "as §1"}, "rice": {"system": "rice", "test": "Test D flooded paddy test", "assay_type": "in vivo, Oryza sativa", "conditions": "250 g ai/ha, applied to paddy water, visual rating after 13 to 14 days, scale 0 to 100 (0 no effect, 100 complete control)", "procedure,_shortened": "as §2"}, "barnyardgrass [11]": {"system": "barnyardgrass", "test": "Test C postemergence", "assay_type": "in vivo, Echinochloa crusgalli", "conditions": "10 days, 0 to 100 scale (0 no effect, 100 complete control)", "procedure,_shortened": "as §1"}, "oat, wild [12]": {"system": "oat, wild", "test": "Test C preemergence", "assay_type": "in vivo, Avena fatua", "procedure,_shortened": "as §1"}, "ryegrass, Italian [13]": {"system": "ryegrass, Italian", "test": "Test C postemergence", "assay_type": "in vivo, Lolium multiflorum", "conditions": "10 days, 0 to 100 scale (0 no effect, 100 complete control)", "procedure,_shortened": "as §1"}, "kochia [14]": {"system": "kochia", "test": "Test C preemergence", "assay_type": "in vivo, Bassia scoparia", "procedure,_shortened": "as §1"}, "corn [15]": {"system": "corn", "test": "Test C postemergence", "assay_type": "in vivo, Zea mays", "conditions": "10 days, 0 to 100 scale (0 no effect, 100 complete control)", "procedure,_shortened": "as §1"}, "wheat [16]": {"system": "wheat", "test": "Test C postemergence", "assay_type": "in vivo, Triticum aestivum", "conditions": "10 days, 0 to 100 scale (0 no effect, 100 complete control)", "procedure,_shortened": "as §1"}, "barnyardgrass [17]": {"system": "barnyardgrass", "test": "Test C preemergence", "assay_type": "in vivo, Echinochloa crusgalli", "procedure,_shortened": "as §1"}, "soybean [18]": {"system": "soybean", "test": "Test C postemergence", "assay_type": "in vivo, Glycine max", "conditions": "10 days, 0 to 100 scale (0 no effect, 100 complete control)", "procedure,_shortened": "as §1"}, "pigweed, palmer [19]": {"system": "pigweed, palmer", "test": "Test C preemergence", "assay_type": "in vivo, Amaranthus palmeri", "procedure,_shortened": "as §1"}, "ducksalad": {"system": "ducksalad", "test": "Test D flooded paddy test", "assay_type": "in vivo, Heteranthera limosa", "conditions": "250 g ai/ha, applied to paddy water, visual rating after 13 to 14 days, scale 0 to 100 (0 no effect, 100 complete control)", "procedure,_shortened": "as §2"}, "wheat [20]": {"system": "wheat", "test": "Test C preemergence", "assay_type": "in vivo, Triticum aestivum", "procedure,_shortened": "as §1"}, "galium": {"system": "galium", "test": "Test C postemergence", "assay_type": "in vivo, Galium aparine", "conditions": "10 days, 0 to 100 scale (0 no effect, 100 complete control)", "procedure,_shortened": "as §1"}, "barnyardgrass [21]": {"system": "barnyardgrass", "test": "Test D flooded paddy test", "assay_type": "in vivo, Echinochloa crus-galli", "conditions": "250 g ai/ha, applied to paddy water, visual rating after 13 to 14 days, scale 0 to 100 (0 no effect, 100 complete control)", "procedure,_shortened": "as §2"}, "ragweed [22]": {"system": "ragweed", "test": "Test C postemergence", "assay_type": "in vivo, Ambrosia artemisiifolia", "conditions": "10 days, 0 to 100 scale (0 no effect, 100 complete control)", "procedure,_shortened": "as §1"}, "horseweed": {"system": "horseweed", "test": "Test C postemergence", "assay_type": "in vivo, Erigeron canadensis", "conditions": "10 days, 0 to 100 scale (0 no effect, 100 complete control)", "procedure,_shortened": "as §1"}, "kochia [23]": {"system": "kochia", "test": "Test C postemergence", "assay_type": "in vivo, Bassia scoparia", "conditions": "10 days, 0 to 100 scale (0 no effect, 100 complete control)", "procedure,_shortened": "as §1"}, "[24]": {"conditions": "500 g ai/ha, preemergence, 0 to 100 scale (0 no effect, 100 complete control)"}, "[25]": {"conditions": "Preemergence, 125 g ai/ha, 0 to 100 scale, 0 no effect, 100 complete control"}},
  "data": [
    {"smiles": "Cc1ccc(-n2cnc(C(C)(C)C)n2)cc1C(=O)N1CC(C(F)(F)F)Oc2c(Cl)cccc21", "note": "(stereo not shown) [Compound 350]", "values": [
      {"measurement": "Soybean plant response rating", "setting": "soybean [1]; [24]", "value": 90},
      {"measurement": "Plant response rating, Soybean", "setting": "soybean [1]; [25]", "value": 90},
      {"measurement": "Plant response rating, Foxtail, Green", "setting": "green foxtail [2]; 500 g ai/ha, postemergence", "value": 80},
      {"measurement": "Plant response rating, Foxtail, Green", "setting": "green foxtail [2]; Postemergence, 125 g ai/ha", "value": 30},
      {"measurement": "Plant response rating, Pigweed, Palmer", "setting": "pigweed, palmer [3]; 500 g ai/ha, postemergence", "value": 100},
      {"measurement": "Plant response rating, Pigweed, Palmer", "setting": "pigweed, palmer [3]; Postemergence, 125 g ai/ha", "value": 100},
      {"measurement": "Ryegrass, Italian plant response rating", "setting": "ryegrass, Italian [4]; [24]", "value": 100},
      {"measurement": "Plant response rating, Ryegrass, Italian", "setting": "ryegrass, Italian [4]; [25]", "value": 100},
      {"measurement": "Plant response rating, Sedge, Umbrella (Flood)", "setting": "sedge, umbrella", "value": 0},
      {"measurement": "Corn plant response rating", "setting": "corn [5]; [24]", "value": 0},
      {"measurement": "Plant response rating, Corn", "setting": "corn [5]; [25]", "value": 0},
      {"measurement": "Plant response rating, Blackgrass", "setting": "blackgrass [6]; 500 g ai/ha, postemergence", "value": 20},
      {"measurement": "Plant response rating, Blackgrass", "setting": "blackgrass [6]; Postemergence, 125 g ai/ha", "value": 10},
      {"measurement": "Foxtail, Green plant response rating", "setting": "green foxtail [7]; [24]", "value": 100},
      {"measurement": "Plant response rating, Foxtail, Green", "setting": "green foxtail [7]; [25]", "value": 100},
      {"measurement": "Plant response rating, Oat, Wild", "setting": "oat, wild [8]; 500 g ai/ha, postemergence", "value": 10},
      {"measurement": "Plant response rating, Oat, Wild", "setting": "oat, wild [8]; Postemergence, 125 g ai/ha", "value": 0},
      {"measurement": "Blackgrass plant response rating", "setting": "blackgrass [9]; [24]", "value": 50},
      {"measurement": "Plant response rating, Blackgrass", "setting": "blackgrass [9]; [25]", "value": 20},
      {"measurement": "Ragweed plant response rating", "setting": "ragweed [10]; [24]", "value": 60},
      {"measurement": "Plant response rating, Ragweed", "setting": "ragweed [10]; [25]", "value": 20},
      {"measurement": "Plant response rating, Rice (Flood)", "setting": "rice", "value": 0},
      {"measurement": "Plant response rating, Barnyardgrass", "setting": "barnyardgrass [11]; 500 g ai/ha, postemergence", "value": 30},
      {"measurement": "Plant response rating, Barnyardgrass", "setting": "barnyardgrass [11]; Postemergence, 125 g ai/ha", "value": 10},
      {"measurement": "Oat, Wild plant response rating", "setting": "oat, wild [12]; [24]", "value": 50},
      {"measurement": "Plant response rating, Oat, Wild", "setting": "oat, wild [12]; [25]", "value": 30},
      {"measurement": "Plant response rating, Ryegrass, Italian", "setting": "ryegrass, Italian [13]; 500 g ai/ha, postemergence", "value": 30},
      {"measurement": "Plant response rating, Ryegrass, Italian", "setting": "ryegrass, Italian [13]; Postemergence, 125 g ai/ha", "value": 10},
      {"measurement": "Kochia plant response rating", "setting": "kochia [14]; [24]", "value": 80},
      {"measurement": "Plant response rating, Kochia", "setting": "kochia [14]; [25]", "value": 50},
      {"measurement": "Plant response rating, Corn", "setting": "corn [15]; 500 g ai/ha, postemergence", "value": 20},
      {"measurement": "Plant response rating, Corn", "setting": "corn [15]; Postemergence, 125 g ai/ha", "value": 10},
      {"measurement": "Plant response rating, Wheat", "setting": "wheat [16]; 500 g ai/ha, postemergence", "value": 10},
      {"measurement": "Plant response rating, Wheat", "setting": "wheat [16]; Postemergence, 125 g ai/ha", "value": 10},
      {"measurement": "Barnyardgrass plant response rating", "setting": "barnyardgrass [17]; [24]", "value": 100},
      {"measurement": "Plant response rating, Barnyardgrass", "setting": "barnyardgrass [17]; [25]", "value": 50},
      {"measurement": "Plant response rating, Soybean", "setting": "soybean [18]; 500 g ai/ha, postemergence", "value": 100},
      {"measurement": "Plant response rating, Soybean", "setting": "soybean [18]; Postemergence, 125 g ai/ha", "value": 100},
      {"measurement": "Pigweed, Palmer plant response rating", "setting": "pigweed, palmer [19]; [24]", "value": 100},
      {"measurement": "Plant response rating, Pigweed, Palmer", "setting": "pigweed, palmer [19]; [25]", "value": 100},
      {"measurement": "Plant response rating, Ducksalad (Flood)", "setting": "ducksalad", "value": 0},
      {"measurement": "Wheat plant response rating", "setting": "wheat [20]; [24]", "value": 30},
      {"measurement": "Plant response rating, Wheat", "setting": "wheat [20]; [25]", "value": 30},
      {"measurement": "Plant response rating, Galium", "setting": "galium; 500 g ai/ha, postemergence", "value": 100},
      {"measurement": "Plant response rating, Galium", "setting": "galium; Postemergence, 125 g ai/ha", "value": 80},
      {"measurement": "Plant response rating, Barnyardgrass (Flood)", "setting": "barnyardgrass [21]", "value": 0},
      {"measurement": "Plant response rating, Ragweed", "setting": "ragweed [22]; 500 g ai/ha, postemergence", "value": 50},
      {"measurement": "Plant response rating, Ragweed", "setting": "ragweed [22]; Postemergence, 125 g ai/ha", "value": 30},
      {"measurement": "Plant response rating, Horseweed", "setting": "horseweed; 500 g ai/ha, postemergence", "value": 40},
      {"measurement": "Plant response rating, Horseweed", "setting": "horseweed; Postemergence, 125 g ai/ha", "value": 40},
      {"measurement": "Plant response rating, Kochia", "setting": "kochia [23]; 500 g ai/ha, postemergence", "value": 90},
      {"measurement": "Plant response rating, Kochia", "setting": "kochia [23]; Postemergence, 125 g ai/ha", "value": 70}
    ]}
  ]
}
